Laboratory results as given in PubChem BioAssay AID248 (DTP/NCI, 2004).
Several values for one entry are separate records, joined by “and”; a condition that tells them apart may be missing. Equal entries are not always repeated. Toxic doses and inconclusive results are not listed. Cut-off read from the data, not from the text of the source: active = T/C of 150% or more; inactive = T/C below 125%.

Test system: L1210 leukemia ip in BDF1 mice, survival T/C
Assay: NCI In Vivo Anticancer Drug Screen. Data for tumor model L1210 Leukemia (intraperitoneal) in B6D2F1 (BDF1) mice
Conditions: endpoint: mean survival time, higher = longer survival
In short: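 Mice bearing the transplanted tumor received compound or vehicle. Survival of the treated group was divided by that of the vehicle-treated control group to give the ratio.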

[1] = dose: 100.0 mg/kg/injection, schedule: Q01DX009 (ip), vehicle: saline
[2] = dose: 100.0 mg/kg/injection, schedule: Q04DX003 (ip), vehicle: saline
[3] = dose: 200.0 mg/kg/injection, schedule: Q01DX009 (ip), vehicle: saline
[4] = dose: 200.0 mg/kg/injection, schedule: Q04DX003 (ip), vehicle: saline
[5] = dose: 400.0 mg/kg/injection, schedule: Q01DX009 (ip), vehicle: saline
[6] = dose: 400.0 mg/kg/injection, schedule: Q04DX003 (ip), vehicle: saline
[7] = dose: 12.5 mg/kg/injection, schedule: Q04DX002 (ip), vehicle: Klucel (hydroxypropylcellulose) (HPC)
[8] = dose: 25.0 mg/kg/injection, schedule: Q04DX002 (ip), vehicle: Klucel (hydroxypropylcellulose) (HPC)
[9] = dose: 100.0 mg/kg/injection, schedule: Q01DX009 (ip), vehicle: Klucel (hydroxypropylcellulose) (HPC)
[10] = dose: 200.0 mg/kg/injection, schedule: Q01DX009 (ip), vehicle: Klucel (hydroxypropylcellulose) (HPC)
[11] = dose: 400.0 mg/kg/injection, schedule: Q01DX009 (ip), vehicle: Klucel (hydroxypropylcellulose) (HPC)
[12] = dose: 100.0 mg/kg/injection, schedule: Q04DX003 (ip), vehicle: other
[13] = dose: 200.0 mg/kg/injection, schedule: Q04DX003 (ip), vehicle: other
[14] = dose: 400.0 mg/kg/injection, schedule: Q04DX003 (ip), vehicle: other
[15] = dose: 25.0 mg/kg/injection, schedule: Q01DX009 (ip), vehicle: saline
[16] = dose: 50.0 mg/kg/injection, schedule: Q01DX009 (ip), vehicle: saline
[17] = dose: 100.0 mg/kg/injection, schedule: Q04DX003 (ip), vehicle: Klucel (hydroxypropylcellulose) (HPC)
[18] = dose: 200.0 mg/kg/injection, schedule: Q04DX003 (ip), vehicle: Klucel (hydroxypropylcellulose) (HPC)
[19] = dose: 400.0 mg/kg/injection, schedule: Q04DX003 (ip), vehicle: Klucel (hydroxypropylcellulose) (HPC)
[20] = dose: 25.0 mg/kg/injection, schedule: Q01DX009 (ip), vehicle: Klucel (hydroxypropylcellulose) (HPC)
[21] = dose: 50.0 mg/kg/injection, schedule: Q01DX009 (ip), vehicle: Klucel (hydroxypropylcellulose) (HPC)

Measured: T/C

O=C1Nc2ccccc2Oc2ccccc21
inactive: [1] 105 % of control | [2] 92 % of control | [3] 93 % of control | [4] 91 % of control | [5] 98 % of control | [6] 92 % of control

N[P+](c1ccccc1)(c1ccccc1)c1ccccc1
inactive: [7] 109 % of control | [8] 88 % of control

Cc1cccc(NC(=O)COc2cc(Cl)c(Cl)cc2Cl)c1C
inactive: [9] 98 % of control | [10] 93 % of control | [11] 101 % of control

CCSC1OC(C(COC(C)=O)OC(C)=O)C(OC(C)=O)C1SCC (centres undefined)
inactive: [12] 97 % of control | [13] 103 % of control | [14] 101 % of control

N#CC12OC1(C#N)C(=O)C1(Cl)C3C=CC(C3)C1(Cl)C2=O (centres undefined)
inactive: dose: 12.5 mg/kg/injection, schedule: Q01DX009 (ip), vehicle: saline 102 % of control | [15] 102 % of control | [16] 96 % of control and 106 % of control

O=C(O)c1ccccc1C(=O)OC1CC2CCC1CC2 (centres undefined)
inactive: dose: 100.0 mg/kg/injection, schedule: Q01DX001 (ip), vehicle: saline with Tween-80 98 % of control | dose: 200.0 mg/kg/injection, schedule: Q01DX001 (ip), vehicle: saline with Tween-80 104 % of control | dose: 400.0 mg/kg/injection, schedule: Q01DX001 (ip), vehicle: saline with Tween-80 100 % of control

NC(=O)N1Cc2ccccc2Cc2ccccc2C1
inactive: [9] 101 % of control | [10] 92 % of control | [11] 95 % of control

COC(=O)/C=C(\C(=O)OC)N1CCCCC1
inactive: dose: 18.75 mg/kg/injection, schedule: Q01DX009 (ip), vehicle: saline with Tween-80 98 % of control | dose: 37.5 mg/kg/injection, schedule: Q01DX009 (ip), vehicle: saline with Tween-80 101 % of control | dose: 75.0 mg/kg/injection, schedule: Q01DX009 (ip), vehicle: saline with Tween-80 91 % of control | dose: 100.0 mg/kg/injection, schedule: Q01DX009 (ip), vehicle: saline with Tween-80 107 % of control

c1cc[c]2c(c1)Oc1cccc[c]1[Sn]21[c]2ccccc2Oc2cccc[c]21
inactive: dose: 100.0 mg/kg/injection, schedule: Q01DX001 (ip), vehicle: other 91 % of control | dose: 200.0 mg/kg/injection, schedule: Q01DX001 (ip), vehicle: other 96 % of control | dose: 400.0 mg/kg/injection, schedule: Q01DX001 (ip), vehicle: other 89 % of control

COc1c2c(cc3c(C)cc(=O)n(C)c13)c(C)cc(=O)n2C
inactive: [17] 99 % of control | [18] 92 % of control | [19] 101 % of control

S=c1[nH]c2ccc(Cl)cc2s1
inactive: [20] 101 % of control | dose: 25.0 mg/kg/injection, schedule: Q04DX003 (ip), vehicle: Klucel (hydroxypropylcellulose) (HPC) 115 % of control | [21] 97 % of control | dose: 50.0 mg/kg/injection, schedule: Q04DX003 (ip), vehicle: Klucel (hydroxypropylcellulose) (HPC) 106 % of control | [9] 97 % of control | [17] 96 % of control

N#CCCN1CCOCC1
inactive: [1] 93 % of control | [2] 97 % of control | [3] 97 % of control | [4] 95 % of control | [5] 95 % of control | [6] 105 % of control

CN(C)c1ccnc(Cl)n1
inactive: dose: 16.0 mg/kg/injection, schedule: Q01DX Z (ip), vehicle: methylcellulose (MC) 97 % of control | dose: 31.0 mg/kg/injection, schedule: Q01DX Z (ip), vehicle: methylcellulose (MC) 96 % of control | dose: 62.0 mg/kg/injection, schedule: Q01DX Z (ip), vehicle: methylcellulose (MC) 90 % of control | dose: 125.0 mg/kg/injection, schedule: Q01DX Z (ip), vehicle: methylcellulose (MC) 92 % of control and 100 % of control | dose: 250.0 mg/kg/injection, schedule: Q01DX Z (ip), vehicle: methylcellulose (MC) 97 % of control

CCOc1ccc(OC(=O)c2ccc(O)cc2)cc1
inactive: [17] 106 % of control | [18] 101 % of control | [19] 96 % of control

C=CC[S][Pb]([c]1ccccc1)([c]1ccccc1)[c]1ccccc1
inactive: dose: 3.0 mg/kg/injection, schedule: Q01DX009 (ip), vehicle: Klucel (hydroxypropylcellulose) (HPC) 106 % of control | dose: 6.0 mg/kg/injection, schedule: Q01DX009 (ip), vehicle: Klucel (hydroxypropylcellulose) (HPC) 90 % of control | [7] 103 % of control | [8] 91 % of control

CC(C)NNC(=O)C(N)CO (centres undefined)
inactive: [15] 91 % of control | [16] 97 % of control | [1] 105 % of control | [3] 97 % of control | [5] 107 % of control

C=C1CC(C)(c2ccccn2)OC1=O (centres undefined)
inactive: dose: 6.25 mg/kg/injection, schedule: Q04DX002 (ip), vehicle: Klucel (hydroxypropylcellulose) (HPC) 94 % of control | [7] 102 % of control | dose: 25.0 mg/kg/injection, schedule: Q01DX001 (ip), vehicle: Klucel (hydroxypropylcellulose) (HPC) 120 % of control | [8] 110 % of control | dose: 100.0 mg/kg/injection, schedule: Q01DX001 (ip), vehicle: Klucel (hydroxypropylcellulose) (HPC) 98 % of control

CN(C)CC(Cl)CCl (centres undefined)
inactive: [2] 98 % of control | [4] 107 % of control | [6] 115 % of control

Nc1ncnc2nc[nH]c12.[Cl][Pt][Cl]
inactive: dose: 100.0 mg/kg/injection, schedule: Q01DX009 (ip), vehicle: water 101 % of control | dose: 100.0 mg/kg/injection, schedule: Q04DX003 (ip), vehicle: water 94 % of control | dose: 200.0 mg/kg/injection, schedule: Q01DX009 (ip), vehicle: water 96 % of control | dose: 200.0 mg/kg/injection, schedule: Q04DX003 (ip), vehicle: water 87 % of control | dose: 400.0 mg/kg/injection, schedule: Q01DX009 (ip), vehicle: water 90 % of control | dose: 400.0 mg/kg/injection, schedule: Q04DX003 (ip), vehicle: water 94 % of control

Cc1cccc(NC(=O)c2cccc(F)c2)c1C
inactive: [9] 105 % of control | [10] 100 % of control | [11] 94 % of control

CC(=S)Nc1ccccc1
inactive: [20] 101 % of control | [21] 104 % of control | [9] 95 % of control

CC(C)n1cc2c(N)ncnc2n1
inactive: [16] 117 % of control | dose: 100.0 mg/kg/injection, schedule: Q01DX001 (ip), vehicle: saline 96 % of control | [1] 104 % of control | [2] 103 % of control | dose: 200.0 mg/kg/injection, schedule: Q01DX001 (ip), vehicle: saline 104 % of control | [4] 108 % of control | dose: 400.0 mg/kg/injection, schedule: Q01DX001 (ip), vehicle: saline 100 % of control | [6] 100 % of control

CC(Br)C(Br)(C(=O)O)c1ccccc1 (centres undefined)
inactive: [12] 91 % of control | [13] 95 % of control | [14] 96 % of control

COc1ccc(CN(C(C)=O)c2cc(C)c([N+](=O)[O-])cc2OC)cc1OC
inactive: [1] 90 % of control | [2] 93 % of control | [3] 94 % of control | [4] 100 % of control | [5] 96 % of control | [6] 98 % of control

CCCC(C(=O)O)(c1ccccc1)c1ccccc1
inactive: dose: 100.0 mg/kg/injection, schedule: Q04DX002 (ip), vehicle: gum acacia 96 % of control | dose: 200.0 mg/kg/injection, schedule: Q04DX002 (ip), vehicle: gum acacia 104 % of control

Clc1ccc2nc(-c3ccc(Cl)c(Cl)c3)cc(-c3ccccc3)c2c1
inactive: [9] 94 % of control | [10] 86 % of control | [11] 97 % of control

Cc1c[n+](Cc2ccccc2)cc(C)n1
inactive: dose: 75.0 mg/kg/injection, schedule: Q01DX001 (ip), vehicle: saline 105 % of control | dose: 150.0 mg/kg/injection, schedule: Q01DX001 (ip), vehicle: saline 98 % of control

C/C(=N\O)C1(O)CCCCC1
inactive: [9] 98 % of control | [17] 103 % of control | [10] 93 % of control | [18] 101 % of control | [11] 96 % of control | [19] 108 % of control

C1=C2CCCCC2OC1 (centres undefined)
inactive: dose: 75.0 mg/kg/injection, schedule: Q01DX001 (ip), vehicle: carboxymethylcellulose (CMC) 97 % of control | dose: 150.0 mg/kg/injection, schedule: Q01DX001 (ip), vehicle: carboxymethylcellulose (CMC) 98 % of control
